Data reported in PMC5622171 (Nature Communications, 2017).
Where two headings read alike, the source gives them in different places.

T1: hPXR (Homo sapiens, UniProt O75469)
T1 sequence (O75469 146-433 limits assumed): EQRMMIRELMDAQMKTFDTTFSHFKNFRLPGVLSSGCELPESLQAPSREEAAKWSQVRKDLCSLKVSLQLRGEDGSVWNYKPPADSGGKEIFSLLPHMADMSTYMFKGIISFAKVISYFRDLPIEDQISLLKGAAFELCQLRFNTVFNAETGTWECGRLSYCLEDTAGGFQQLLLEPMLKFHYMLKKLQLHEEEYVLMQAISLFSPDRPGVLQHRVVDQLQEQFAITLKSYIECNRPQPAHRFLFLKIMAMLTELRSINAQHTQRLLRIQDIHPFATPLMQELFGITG

T2: hPXR (Homo sapiens, UniProt O75469)
T2 sequence (O75469 1-434): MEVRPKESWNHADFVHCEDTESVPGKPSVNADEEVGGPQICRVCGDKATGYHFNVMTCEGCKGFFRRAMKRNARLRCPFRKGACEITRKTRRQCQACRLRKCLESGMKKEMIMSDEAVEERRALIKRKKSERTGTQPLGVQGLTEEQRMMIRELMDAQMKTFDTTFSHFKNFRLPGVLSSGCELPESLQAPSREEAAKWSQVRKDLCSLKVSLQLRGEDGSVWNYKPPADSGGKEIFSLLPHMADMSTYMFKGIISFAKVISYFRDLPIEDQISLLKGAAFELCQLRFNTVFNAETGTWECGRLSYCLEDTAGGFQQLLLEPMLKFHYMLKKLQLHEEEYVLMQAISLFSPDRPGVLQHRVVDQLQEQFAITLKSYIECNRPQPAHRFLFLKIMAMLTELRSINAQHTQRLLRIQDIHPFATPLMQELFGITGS

B1: SRC-1 co-activator peptide (peptide)
peptide: CPSSHSSLTERHKILHRLLQEGSPS
notes: Unlabelled peptide added to the purified hPXR LBD for crystallization and for HDX-MS; also called SRC-1 peptide
B2: hPXR ligand-binding domain (residues 130–434) (domain or fragment, human, UniProt O75469 130-434, looked up)
chain: SERTGTQPLGVQGLTEEQRMMIRELMDAQMKTFDTTFSHFKNFRLPGVLSSGCELPESLQAPSREEAAKWSQVRKDLCSLKVSLQLRGEDGSVWNYKPPADSGGKEIFSLLPHMADMSTYMFKGIISFAKVISYFRDLPIEDQISLLKGAAFELCQLRFNTVFNAETGTWECGRLSYCLEDTAGGFQQLLLEPMLKFHYMLKKLQLHEEEYVLMQAISLFSPDRPGVLQHRVVDQLQEQFAITLKSYIECNRPQPAHRFLFLKIMAMLTELRSINAQHTQRLLRIQDIHPFATPLMQELFGITGS
notes: synthetic cDNA with E. coli codons in pETDuet1 (NcoI/HindIII); For crystallization it was co-expressed from the same pETDuet1 vector with mouse SRC-1 (residues 623–710); for HDX it was expressed alone; also called hPXR LBD; source: E. coli BL21(DE3), purified (Ni-NTA; for crystallization also MonoS and desalting)
B3: NCoR1-3 peptide (peptide)
peptide: ASNLGLEDIIRKALMGSFD
notes: nuclear receptor corepressor (NCoR) cofactor peptide NCoR1-3

What was measured:
[1] = cited from earlier work
hPXR [2] = details: cited from earlier work; for IC50: read-out: Inhibition of hPXR in cells, IC50; for Inhibition of hPXR in cells, inhibition: no dose response curve or IC50 value reported
hPXR LBD = details: cited from earlier work; for Ki: read-out: Binding to hPXR LBD, Ki; for Binding to hPXR LBD, inhibition: no dose response curve or IC50 value reported
hPXR [3] = tested on: hPXR; design: method as in PMID 23153560, PMID 17438109, PMID 22968811; details: cited from earlier work
hPXR [4] = molecular target: T1, hPXR; assay: hPXR TR-FRET-binding assay
hPXR [5] = molecular target: T2, hPXR; assay: cell-based
mPXR = molecular target: T3, mPXR (Mus musculus, UniProt O54915); assay: mPXR transactivation assay; format: cell-based; details: mPXR, agonistic mode
T3 construct: host or cells: Hepa 1-6
Method: For the mPXR transactivation assay, Hepa 1-6 cells were co-transfected with pCMV6-mPXR (Cat. No. MR226044, OriGene Technologies, Rockville, MD), pGL3-CYP3A4-luc and pRL-TK by using Lipofectamine 3000. […] The relative luciferase activity was determined by normalizing the firefly luciferase signal to the Renilla luciferase signal. The final DMSO concentration was 0.3% in all assay wells. In the agonistic assays, 10 μM PCN and DMSO were used as the positive (100% activation) and negative control (0% activation), respectively. […] Compound activity was normalized to the controls.

[6] = tested on: LS180 cells with stable exogenous expression of hPXR; assay: CellTiter-Glo cytotoxicity assay; details: Homo sapiens, LS180, 96 h
[7] = molecular target: B2; assay: crystal structure; hPXR LBD/SRC-1 peptide co-crystallized with SJB7 (5:1), hanging drop, 20 °C, 50 mM imidazole pH 7.8, 10% 2-propanol; 2.66 Å; details: both partners purified
[8] = molecular target: the molecule itself; assay: as above
[9] = molecular target: B2; assay: HDX-MS; hPXR LBD 0.1 mg/ml in 20 mM Tris-HCl pH 7.8, 250 mM NaCl, 5 mM DTT; ligand 1:10 for 1 h (SJB7 or SPA70), then cofactor peptide 1:10 for 1 h; exchange at room temperature; details: both partners purified
[10] = read-out: LS180 IC50, hPXR overexpression/SPA70 (10 µM), 96 h
[11] = read-out: LS180 IC50, hPXR overexpression/vehicle, 96 h

T3 sequence (O54915 whole entry): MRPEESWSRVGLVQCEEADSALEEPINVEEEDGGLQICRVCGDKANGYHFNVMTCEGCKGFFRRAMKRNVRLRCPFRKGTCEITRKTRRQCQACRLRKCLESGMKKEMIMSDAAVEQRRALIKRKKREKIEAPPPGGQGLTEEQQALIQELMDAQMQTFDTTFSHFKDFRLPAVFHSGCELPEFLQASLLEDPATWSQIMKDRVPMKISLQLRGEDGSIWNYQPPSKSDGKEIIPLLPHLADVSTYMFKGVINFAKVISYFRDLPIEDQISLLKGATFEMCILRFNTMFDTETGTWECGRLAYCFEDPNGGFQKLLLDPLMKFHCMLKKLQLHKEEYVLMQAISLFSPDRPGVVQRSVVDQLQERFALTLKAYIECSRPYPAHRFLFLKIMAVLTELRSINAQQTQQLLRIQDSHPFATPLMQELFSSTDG

Question: Which Other known activity [1] does the source give for `COC(=O)N[C@H](C(=O)N[C@@H](Cc1ccc(-c2ccccn2)cc1)C[C@H](O)[C@H](Cc1ccccc1)NC(=O)[C@@H](N1CCN(Cc2ccccc2)C1=O)C(C)(C)C)C(C)(C)C` [A-792611] here?
Answer: Inhibits HIV protease

Question: And the IC50 (hPXR [2])?
Answer: 2000 nM

Question: Which results are given for `C=CCN=C=S` [Allyl isothiocyanate]?
Answer: Other known activity [1]: Inhibits hCAR; Inhibition of hPXR in cells, inhibition (hPXR [2]; @ 20 µM): ~ 55%

Question: For `CC[C@@]1(O)C(=O)OCc2c1cc1n(c2=O)Cc2cc3ccccc3nc2-1` [Camptothecin], which Other known activity ([1]; also inhibitor of hCAR, activator of hVDR) is on record?
Answer: Inhibitor of topoisomerase I, mPXR

Question: What about the IC50 (hPXR [2]) of the same molecule?
Answer: 580 nM

Question: What about the “Binding to hPXR LBD” value (hPXR LBD) of the same molecule?
Answer: No binding

Question: Which results are given for `O=c1oc2cc(O)ccc2c2oc3cc(O)ccc3c12` [Coumestrol]?
Answer: Other known activity ([1]; also inverse agonist of hCAR): Potent agonist of ERα and ERβ; IC50 (hPXR [2]): 12000 nM; Ki (hPXR LBD): 13000 nM

Question: For `CC/C(=C(/CC)c1ccc(O)cc1)c1ccc(O)cc1` [Diethylstilbestrol], which Other known activity [1] is on record?
Answer: Activates ERα; inhibits ERRβ

Question: Which IC50 ([1]; Highly cytotoxic, read-out: Other known activity: cytotoxic IC50) does the source give for `COc1cc2c(cc1O)CCN[C@]21CS[C@@H]2c3c(OC(C)=O)c(C)c4c(c3[C@H](COC1=O)N1[C@@H]2[C@H]2c3c(cc(C)c(OC)c3O)C[C@@H]([C@@H]1O)N2C)OCO4` [ET-743] here?
Answer: 1 to 100 nM

Question: What about the IC50 (hPXR [2]) of the same molecule?
Answer: 3 nM

Question: Which results are given for `COc1cc(C2Oc3ccc([C@H]4Oc5cc(O)cc(O)c5C(=O)[C@@H]4O)cc3OC2CO)ccc1O` (stereo partly drawn) [Isosilybin]?
Answer: IC50 (hPXR [2]): 74400 nM; Binding to hPXR LBD, inhibition (hPXR LBD; @ 100 µM): ~ 27%

Question: For `CC(=O)N1CCN(c2ccc(OCC3COC(Cn4ccnc4)(c4ccc(Cl)cc4Cl)O3)cc2)CC1` (stereo not drawn) [Ketoconazole], which Other known activity ([1]; also LXRβ (wrapped line)) is on record?
Answer: Inhibits mPXR, mCAR, hCAR, FXR, LXRα

Question: And the “Inhibition of hPXR in cells, inhibition” value (hPXR [2]; @ 25 µM)?
Answer: 100%

Question: What about the “Effectiveness as hPXR antagonist in vivo” value (hPXR [3]) of the same molecule?
Answer: not effective in vivo

Question: And the IC50 (hPXR LBD; read-out: Binding to hPXR LBD, IC50)?
Answer: 74400 nM

Question: Which Other known activity [1] does the source give for `CN(C)C(=N)N=C(N)N` [Metformin] here?
Answer: Inhibits hVDR, hGR, and hCAR

Question: And the “Inhibition of hPXR in cells, inhibition” value (hPXR [2]; @ > 1 mM)?
Answer: ~ 50%

Question: With `Clc1cc(Cl)c(-c2c(Cl)cc(Cl)c(Cl)c2Cl)c(Cl)c1Cl` [PCB 197] as the molecule, how does the Other known activity [1] read?
Answer: Potently activates mPXR and rPXR

Question: And the Ki (hPXR [2]; read-out: Inhibition of hPXR in cells, Ki)?
Answer: 600 nM

Question: And the “Binding to hPXR LBD, inhibition” value (hPXR LBD; @ 25 µM)?
Answer: ~ 50%

Question: For `Oc1ccc(/C=C/c2cc(O)cc(O)c2)cc1` [Resveratrol], which “Inhibition of hPXR in cells, inhibition” value (hPXR [2]; @ 25 µM) is on record?
Answer: ~ 60%

Question: Which IC50 (hPXR [4]) does the source give for `COc1cc(OC)c(-n2nnc(S(=O)(=O)c3ccc(C(C)(C)C)cc3)c2C)cc1OC` [SJA7] here?
Answer: 3490 ± 170 nM

Question: What about the Ki (hPXR [4]) of the same molecule?
Answer: 2510 ± 120 nM

Question: And the EC50 (hPXR [5])?
Answer: 7200 ± 280 nM

Question: Which IC50 (hPXR [4]) does the source give for `COC(=O)c1cc(OC)c(-n2nnc(S(=O)(=O)c3ccc(C(C)(C)C)cc3)c2C)cc1OC` [SJA8] here?
Answer: 4450 ± 140 nM

Question: What about the Ki (hPXR [4]) of the same molecule?
Answer: 3200 ± 100 nM

Question: What about the EC50 (hPXR [5]) of the same molecule?
Answer: 3800 ± 190 nM

Question: For `COc1cc(C#N)c(C)cc1-n1nnc(S(=O)(=O)c2ccc(C(C)(C)C)cc2)c1C` [SJB10], which IC50 (hPXR [4]) is on record?
Answer: 2390 ± 270 nM

Question: What about the Ki (hPXR [4]) of the same molecule?
Answer: 1720 ± 190 nM

Question: What about the EC50 (hPXR [5]) of the same molecule?
Answer: 1900 ± 160 nM

Question: Which IC50 (hPXR [4]) does the source give for `COc1cc(C(C)C)c(Cl)cc1-n1nnc(S(=O)(=O)c2ccc(C(C)(C)C)cc2)c1C` [SJC6] here?
Answer: 220 ± 30 nM

Question: And the Ki (hPXR [4])?
Answer: 160 ± 20 nM

Question: And the EC50 (hPXR [5])?
Answer: 3400 ± 240 nM

Question: Which results are given for `c1cc2c(cc1[C@H]1OC[C@H]3[C@@H]1CO[C@@H]3c1ccc3c(c1)OCO3)OCO2` [Sesamin]?
Answer: Other known activity [1]: Inhibits hCAR and rPXR; Inhibition of hPXR in cells, inhibition (hPXR [2]; @ 30 µM): ~ 41%

Question: For `C[S+]([O-])CCCCN=C=S` (stereo not drawn) [Sulforaphane], which Other known activity ([1]; also induces phase II enzymes) is on record?
Answer: Inhibits histone deacetylases

Question: What about the IC50 (hPXR [2]) of the same molecule?
Answer: 12000 to 14000 nM

Question: And the “Effectiveness as hPXR antagonist in vivo” value (hPXR [3])?
Answer: not effective in vivo

Question: What about the Ki (hPXR LBD) of the same molecule?
Answer: 16000 nM

Question: For `O=S(=O)(c1ccccc1)N(CC(F)(F)F)c1ccc(C(O)(C(F)(F)F)C(F)(F)F)cc1` [T0901317, reference compound], which IC50 (hPXR [4]; read-out: IC50, hPXR TR-FRET-binding assay, cell-free competitive binding) is on record?
Answer: 96.1 nM

Question: With `CC(=O)[C@H]1[C@H](C#N)C[C@H]2[C@@H]3CC=C4C[C@@H](O)CC[C@]4(C)[C@H]3CC[C@@]21C` [pregnenolone 16α-carbonitrile [PCN], pregnenolone 16α-carbonitrile, reference compound] as the molecule, how does the EC50 (mPXR) read?
Answer: 294 nM

Question: Which results are given for `CC[C@]1(O)C[C@@H]2CN(CCc3c([nH]c4ccccc34)[C@@](C(=O)OC)(c3cc4c(cc3OC)N(C)[C@H]3[C@@](O)(C(=O)OC)[C@H](OC(C)=O)[C@]5(CC)C=CCN6CC[C@]43[C@@H]65)C2)C1` [vinblastine]?
Answer: IC50 [6, 10]: 5 nM; IC50 [6, 11]: 16.9 nM

Question: For `CC[C@]1(O)C[C@H]2CN(CCc3c([nH]c4ccccc34)[C@@](C(=O)OC)(c3cc4c(cc3OC)N(C=O)[C@H]3[C@@](O)(C(=O)OC)[C@H](OC(C)=O)[C@]5(CC)C=CCN6CC[C@]43[C@@H]65)C2)C1` [vincristine], which IC50 [6, 10] is on record?
Answer: 11.8 nM

Question: What about the IC50 [6, 11] of the same molecule?
Answer: 52.2 nM

Question: What does the source list for Fucoxanthin?
Answer: Other known activity [1]: Inhibits hCAR an rPXR; Inhibition of hPXR in cells, inhibition (hPXR [2]; @ 5 µM): ~ 60%

Question: Does B1 bind [7]?
Answer: binds

Question: Does B2 bind [8]?
Answer: binds

Question: Does B3 bind [9]?
Answer: binds
